Results published in US6573045B1, “Methods and kits for discovery of RNA-binding compounds” (Ribotargets, Ltd., priority 1998, dated 2003).
Where “and” joins values, the source holds several entries; their conditions need not be identical. Identical values can stand only once. Ends that are not written are not given here. * marks the point of attachment. TAMRA = tetramethylrhodamine (fluorescent label); DABCYL = CN(C)c1ccc(/N=N/c2ccc(C(=O)*)cc2)cc1

What was measured:
GTPase-LHL RNA = experiment: Dabcyl-peptide binding to Fam-labelled RNA (quenching), GTPase LHL; conditions: GTPase-LHL, 110 mM KCl
Source text: (§1) A representative subset comprising 40 peptide sequences from the total of 243 possible sequences was synthesised and is shown in Table 6. The peptides from the library are: No. 3 (SEQ ID NO:11), 4 (SEQ ID NO:12), 5 (SEQ ID NO:13), 6 (SEQ ID NO:14), 7 (SEQ ID NO:15), 8 (SEQ ID NO:16), 9 (SEQ ID NO:17), 10 (SEQ ID NO:18), 11 (SEQ ID NO:19), 12 (SEQ ID NO:20), 13 (SEQ ID NO:21), 14 (SEQ ID NO:22), 15 (SEQ ID NO:23), 16 (SEQ ID NO:24), 17 (SEQ ID NO:25), 18 (SEQ ID NO:26), 19 (SEQ ID NO:27), 20 (SEQ ID NO:28), 21 (SEQ ID NO:29), 22 (SEQ ID NO:30), 23 (SEQ ID NO:31), 24 (SEQ ID NO:32), 25 (SEQ ID NO:33), 26 (SEQ ID NO:34), 27 (SEQ ID NO:35), 28 (SEQ ID NO:36), 29 (SEQ ID NO:37), 30 (SEQ ID NO:38), 31 (SEQ ID NO:39), 32 (SEQ ID NO:40), 33 (SEQ ID NO:41), 34 (SEQ ID NO:42), 35 (SEQ ID NO:43), 36 (SEQ ID NO:44), 37 (SEQ ID NO:45), 38 (SEQ ID NO:46), 39 (SEQ ID NO:47), 40 (SEQ ID NO:48), 41 (SEQ ID NO:49), 42 (SEQ ID NO:50). These peptides were assayed for their ability to bind to range of RNA sequences carrying fluorescein attached to the 5′ end, as shown in FIG. 25.
(§2) FIG. 26. presents binding data for the peptide sequence 5 (KKQKR) (SEQ ID NO: 13) and the 4 RNA sequences. Reactions (100 μl) containing Fam-labelled RNA (10 nM) were mixed with increasing concentrations of Dabcyl-labelled ADP-1 peptide (up to 250 nM) in 50 mM Tris/Cl, pH7.4, 20 mM or 110 mM KCl (as indicated), 5 μg/ml BSA, 0.01% Triton X-100, 1% DMSO. Fluorescence (excitation 490 nm/emission at 535 nm) was determined using a Victor plate reader.
(§3) Dissociation constants were determined by fitting a binding isotherm (1-site-binding) to the data using the equation:
(§4) Y=((Fmax−Fmin)−((Fmax−Fmin)*X/(Kd+X)))+Fmin
(§5) where Fmax is fluorescence in the absence of quencher, Fmin is fluorescence at saturation, and X is peptide concentration.

RRE RNA = experiment: Dabcyl-peptide binding to Fam-labelled RNA (quenching), RRE; design: species or system HIV; conditions: RRE, 110 mM KCl
Source text: as §1, §2, §3, §4, §5

TAR bulge RNA = experiment: Dabcyl-peptide binding to Fam-labelled RNA (quenching), TAR; design: species or system HIV; conditions: 110 mM KCl
Source text: as §1, §2, §3, §4, §5

FAM-TAR RNA = experiment: Quenching of FAM-TAR RNA by DABCYL-labelled ADP-1; assay type: binding, HIV; conditions: 20 nM FAM-TAR, FIG. 19
Protocol: It is also possible to place a fluorescent group on the RNA target and a quenching group on the reporter molecule. […] The DABCYL-ADP-1 was pre-treated in the presence of 1% TFA at room temperature for 5 minutes prior to dilution into binding buffer (0.01% Triton X-100, 5 μg/ml BSA, 1% DMSO, 50 mM Tris-HCl pH 7.6, 20 mM KCl) and incubated on ice prior to complex formation.
Reactions were equilibrated at room temperature for 15 minutes prior to analysis in the Wallac Victor2 plate reader. The reactions were excited at 485 nm and fluorescence emission recorded at 535 nm. The fluorescence emission signal of the 20 nM FAM-TAR is progressively quenched after addition of increasing amounts of DABCYL-ADP-1 peptide. The experimental data shown in FIG. 19 was analysed in GraphPad PRISMTM using a non linear regression fit for single site binding.

ss-19mer RNA = experiment: Dabcyl-peptide binding to Fam-labelled RNA (quenching), single stranded RNA; conditions: ss-19mer, 110 mM KCl
Source text: as §1, §2, §3, §4, §5

DABCYL-RRE RNA = experiment: Quenching of TAMRA-labelled Rev peptide by DABCYL-RRE RNA; assay type: binding, HIV; conditions: 20 nM TAMRA-Rev, increasing DABCYL-RRE, FIG. 21
Protocol: (§6) In the experiment shown in FIG. 21, 20 nM TAMRA-Rev was incubated with increasing concentrations of DABCYL-RRE. The TAMRA-Rev was pre-treated in the presence of 1% TFA at room temperature for 5 minutes prior to dilution in to storage buffer (0.01% Triton X-100, 5 μg/ml BSA, 1% DMSO, 50 mM Tris-HCl pH 8, 50 mM KCl) and incubated on ice prior to complex formation. Reactions were equilibrated at room temperature for 15 minutes prior to analysis in the Wallac Victor2 plate reader. The reactions were excited at 544 nm and fluorescence emission recorded at 570 nm. The fluorescence emission signal of the 20 nM TAMRA-Rev alone was subtracted from each signal obtained in the presence of increasing amounts of DABCYL-RRE and plotted as a function of DABCYL-RRE concentration (FIG. 21) in GraphPad PRISMTM using a non linear regression fit for single site binding.

DABCYL-TAR RNA = experiment: Quenching of TAMRA-labelled Rev peptide by DABCYL-TAR RNA; assay type: binding, HIV; conditions: 20 nM TAMRA-Rev, increasing DABCYL-TAR, FIG. 22
Protocol: as §6, with “20” for “In the experiment shown in FIG. 21, 20”, “DABCYL-TAR.” for “DABCYL-RRE.”, “into” for “in to”, “DABCYL-TAR” for “DABCYL-RRE”, “22)” for “21)”

Q: Which results are given for “DABCYL-Phe-Thr-Thr-Lys-Ala-Leu-Gly-Ile-Ser-Tyr-Gly-Arg-Lys-Lys-Arg-Arg-Gln-Arg-Arg-Arg-Pro-Pro-Gln-Gly-Ser-Gln-Thr-His-Gln-Val-Ser-Leu-Ser-Lys-Gln ({DABCYL}-FTTKALGISYGRKKRRQRRRPPQGSQTHQVSLSKQ) [DABCYL-ADP-1]”?
A: Kd (GTPase-LHL RNA): 131 nM; Kd (RRE RNA): 39 nM; Kd (TAR bulge RNA): 35 nM and 41 nM; Kd (FAM-TAR RNA): 33 nM; Kd (ss-19mer RNA): 511 nM

Q: “TAMRA-Asp-Thr-Arg-Gln-Ala-Arg-Arg-Asn-Arg-Arg-Arg-Arg-Trp-Arg-Glu Arg-Gln-Arg ({TAMRA}-DTRQARRNRRRRWRERQR) [TAMRA-Rev]” was tested. Which Kd (DABCYL-RRE RNA) did it give?
A: 137 ± 23 nM

Q: What about the Kd (DABCYL-TAR RNA) of the same substance?
A: 11000 nM
